# Assay results published in patent US12458647B2, “Macrocyclic derivative and use thereof” (Guangzhou Joyo Pharmatech Co., Ltd., priority 2022, dated 2025).
# Key:
# [1] = test system: human lung bronchial benign NCI—H727 cells; experiment: In vivo pharmacodynamic study, NCI-H727 subcutaneous xenograft tumor model in BALB/c nude mice; settings: gavage once daily
# Protocol: To study the in vivo efficacy of a compound of the present disclosure on human lung bronchial benign NCI—H727 cells in a subcutaneous xenograft tumor model in BALB/c nude mice.
# Laboratory animals: Female BALB/c nude mice, 6-8 weeks old, weighing 18-22 g; supplier Beijing Vital River Laboratory Animal Technology Co., Ltd.
# (1) Cell culture: Human lung bronchial benign tumor cells were cultured in vitro in a monolayer, and the culture conditions were 10% fetal bovine serum added to Gibco RMPI1640 medium, incubated at 37° C. in a 5% CO2 incubator. Routine passage was performed twice a week with trypsin-EDTA for digestion. When the cell saturation was 80%-90% and the required number was reached, the cells were collected, counted, and inoculated.
# (2) Tumour cell inoculation and grouping: 0.2 mL (2×10^6) of NCI—H727 cells (Matrigel was added in a volume ratio of 1:1) were inoculated subcutaneously into the right back of each mouse, and dosing was initiated when the mean tumor volume reached approximately 134 mm^3, with 6 animals in each group.
# The vehicle was 5% DMSO/10% solutol/85% water. Control group: The vehicle was administered twice daily by gavage at a dose of 10 μL/g; treatment group: After dissolving the test compound in the vehicle, the compound was administered by gavage once daily.
# (3) The tumor diameter was measured with a vernier caliper twice weekly, and the tumor volume(V) was calculated. The formula is: V=0.5a×b^2, where a and b are the long and short diameters of the tumor, respectively. The tumor inhibitory efficacy of the test compound was evaluated by the tumor growth inhibition rate (TGI). The calculation formula is: TGI %=1−(Mean tumor volume at the end of dosing in a treatment group−Mean tumor volume at the start of dosing in this treatment group)/(Mean tumor volume at the end of treatment in the vehicle control group−Mean tumor volume at the start of treatment in the vehicle control group)×100%.
# PK-59 cell line = experiment: In vitro cell proliferation experiment (5 days), PK-59; assay type: cell-based; settings: PK-59, 5 days; read-out: Inhibitory Activity IC50
# Protocol: (§1) RPMI 1640 medium, DMEM, Ham's F12 medium, F12K medium, IMDM and penicillin/streptomycin antibiotics were purchased from Gibco, fetal bovine serum was purchased from Hyclone, Envision multilabel plate reader (PerkinElmer). […]
# (§2) The test compound was diluted by 5-fold to 8 concentrations with a pipette, i.e., from 2 mM to 25.6 nM, and replicate wells were set up for the experiment. […] Another cell plate was prepared, and the signal value was read as the maximum value (the maximum value in the following equation) on the day of dosing for data analysis.
# (§3) 50 μL of cell viability chemiluminescent detection reagent was added to the cell plate and incubated at room temperature for 30 minutes to stabilize the luminescence signal. A multilabel plate reader was used for reading. […]
# AsPC-1 cells = experiment: In vitro AsPC-1 cell proliferation experiment (10 days, 3D CellTiter-Glo); assay type: cell-based; settings: 10 days culture
# Protocol: RPMI1640 medium, penicillin/streptomycin antibiotics were purchased from Gibco, and fetal bovine serum was purchased from Hyclone. 3D CellTiter-Glo (cell viability chemiluminescent detection reagent) reagent was purchased from Promega. The AsPC-1 cell line was purchased from ATCC, Envision multilabel plate reader (PerkinElmer).
# AsPC-1 cells were seeded in an ultra-low adsorption 96-well U-shaped plate, with 80 μL of cell suspension per well, containing 1,000 AsPC-1 cells. The plate was incubated overnight in a carbon dioxide incubator.
# as §2, with “nM” for “nM,”, “experiment. 78 μL of culture medium was added to the intermediate plate, then 2 μL of the gradient diluted compound was transferred into each well of the intermediate plate according to the corresponding position. After mixing well, 20 μL of each well was transferred to the cell plate.” for “experiment.”
# 100 μL of cell viability chemiluminescent detection reagent was added to the cell plate and incubated at room temperature for 30 minutes to stabilize the luminescence signal. A multilabel plate reader was used for reading. […]
# NCI—H441 cells = experiment: In vitro cell proliferation experiment (5 days), H441; assay type: cell-based; settings: H441, 5 days; read-out: Inhibitory Activity IC50
# Protocol: as §1, §2, §3
# [2] = 25 mg/kg on Days 1-6 and 1 mg/kg on Days 7-21, Day 21
smiles,measurement,setting,value
"CCn1c(-c2cc(N3CCN(C)CC3)cnc2C(C)OC)c2c3cc(ccc31)-c1csc(n1)CC(NC(=O)C1C(C)C1C)C(=O)N1NC(C(=O)OCC(C)(C)C2)C2CC1C2 (single isomer, unassigned) [Compound 6A]",Tumour Volume (mm^3) Day 1,"[1]; 5 mg/kg, Day 1",134.6 mm^3
same,Tumour Volume (mm^3) Day 7,"[1]; 5 mg/kg, Day 7",86.5 mm^3
same,Tumour Volume (mm^3) Day 14,"[1]; 5 mg/kg, Day 14",78.5 mm^3
same,TGI (%),"[1]; 5 mg/kg, Day 21",104.4%
same,Tumour Volume (mm^3) Day 21,"[1]; 5 mg/kg, Day 21",51.6 mm^3
same,Tumour Volume (mm^3) Day 1,"[1]; 25 mg/kg on Days 1-6 and 1 mg/kg on Days 7-21, Day 1",134.5 mm^3
same,Tumour Volume (mm^3) Day 7,"[1]; 25 mg/kg on Days 1-6 and 1 mg/kg on Days 7-21, Day 7",76.8 mm^3
same,Tumour Volume (mm^3) Day 14,"[1]; 25 mg/kg on Days 1-6 and 1 mg/kg on Days 7-21, Day 14",71.1 mm^3
same,TGI (%),[1]; [2],103.2%
same,Tumour Volume (mm^3) Day 21,[1]; [2],75.1 mm^3
same,IC50,PK-59 cell line,2.3 nM
same,IC50,AsPC-1 cells,1 nM
same,IC50,NCI—H441 cells,1.4 nM
